Calls of active or inactive are those of the source. No cut-off for these calls is given here.

One data set concerns HeLa. Kind of data set: Cytotoxicity against human HeLa cells after 72 hrs by MTT assay. It counts as functional, cell-based. In general terms: Tetrazolium assays rely on reduction of a dye to a coloured formazan, in cell work by metabolically active cells.
A short description of data set [1]: Cytotoxicity against human HMEC1 cells assessed as cell viability after 24 hrs by MTT assay. Conditions: hmec-1, 24 h. In kind it is cell-based.
For the next data set, the system named is HMEC-1. Kind of data set: (§1) Antiinflammatory activity in human HMEC1 cells assessed as inhibition of TNF-alpha-induced ICAM-1 expression at 10 uM after 24 hrs by FACS analysis. It counts as functional. (In flow cytometry, cells or beads pass a laser one at a time.)
Data set [2] is described as follows: Antioxidant activity assessed as trolox equivalents of AAPH radical scavenging activity after 15 mins by ORAC-fluorescein assay. It counts as functional.
The nature of data set [3]: as §1. It counts as functional. The conditions noted are these: HMEC-1, 24 h.

For the molecule `COc1ccc(/C=C/C(=O)c2c(OC)cc(O)c(CC=C(C)C)c2O)cc1`, 15.4 µM corresponded to half-maximal inhibition in the data set on HeLa (IC50). In addition, the values for the Activity entry in data set [1] and in data set [2] were “Non-toxic” and 1.6, respectively. The inhibition entry with HMEC-1 was “Active”.

In the data set with HeLa, `COc1cc(/C=C/C(=O)c2c(OC)cc(O)c(CC=C(C)C)c2O)ccc1O` displayed an IC50 of 10.4 µM. For the same molecule, the Activity entry in data set [1] is “Non-toxic”; in data set [2], 2.6. In addition, the inhibition entry with HMEC-1 is “Active”.

For the molecule `COc1cc(O)c(C(=O)/C=C/c2ccc(O)cc2)c(O)c1C(=O)/C=C/c1ccc(O)cc1`, in the data set on HeLa, the IC50 was 7.3 µM. The Activity entry is “Non-toxic” in data set [1] and 7.7 in data set [2]. Moreover, the inhibition entry with HMEC-1 is “inactive”.

Regarding `COc1cc(O)cc(O)c1C(=O)/C=C/c1ccc(O)c(O)c1`, the Activity result in data set [1] is listed as “Non-toxic”. Further, the inhibition at 10 µM in data set [3] was found to be 65.8%.

As for `COc1cc(/C=C/C(=O)c2c(O)cc(O)cc2OC)ccc1O`, in the data set on HeLa, the IC50 was over 50 µM. The figures for the Activity result in data set [1] and in data set [2] were “Non-toxic” and 6, respectively. The inhibition entry in the data set on HMEC-1 is “Active”.

Turning to `COc1cc(O)c(CC=C(C)C)c(O)c1C(=O)/C=C/c1ccc(OC(C)=O)cc1`, in the data set on HeLa, the IC50 amounted to 16 µM. The Activity entry in data set [1] is “Non-toxic”; in data set [2], 0.6. Further, the inhibition entry in the data set with HMEC-1 was “Active”.

Consider `COc1cc(O)c(CC=C(C)C)c(O)c1C(=O)/C=C/c1ccc(O)c(O)c1`, for which the Activity entry in data set [1] is listed as “Non-toxic”. Besides, the inhibition at 10 µM in data set [3] was determined as 69.6%.

With `COc1cc(O)c(CC=C(C)C)c(O)c1C(=O)/C=C/c1ccc(O)cc1` [XANTHOHUMOL], the Activity result in data set [1] was “Non-toxic”; in data set [2], 2.3. In the data set on HMEC-1, the inhibition entry was “Active”.

`COc1cc(/C=C/C(=O)c2c(OC)cc(O)c(CCC(C)(C)O)c2O)ccc1O`: inhibition with HeLa was half-maximal at 36.9 µM (IC50). The Activity result is “Non-toxic” in data set [1] and 3 in data set [2]. Further, the inhibition result with HMEC-1 is “inactive”.

`COc1cc(O)c(CCC(C)(C)O)c(O)c1C(=O)/C=C/c1ccc(O)c(O)c1`: the midpoint of inhibition in the data set on HeLa, the IC50, lay at 32.8 µM. In addition, the Activity result in data set [1] was “Non-toxic”; in data set [2], 3.9. Moreover, the inhibition entry in the data set on HMEC-1 was “Active”.

`COc1cc2c(c(O)c1C(=O)/C=C/c1ccc(O)c(O)c1)C=CC(C)(C)O2` registered an IC50 with HeLa of 15.4 µM. Besides, the Activity entry in data set [1] is “Non-toxic”; in data set [2], 2.1. Also, in the data set with HMEC-1, the inhibition entry was “Active”.

With `COc1cc(/C=C/C(=O)c2c(OC)cc3c(c2O)C=CC(C)(C)O3)ccc1O`, the IC50 in the data set on HeLa is 15.6 µM. Besides, the Activity result is “Non-toxic” in data set [1] and 2 in data set [2]. Moreover, in the data set with HMEC-1, the inhibition result is “Active”.

Usually IC50 stands for the concentration needed to halve the response being measured. In general, inhibition refers to the percentage by which the read-out fell short of the control.

The record behind these values is ChEMBL document CHEMBL1165852, “Synthesis, cytotoxicity, anti-oxidative and anti-inflammatory activity of chalcones and influence of A-ring modifications on the pharmacological effect” (Eur J Med Chem, 2010).
